Series [1] deals with HCT-15. In words: cells. Conditions: Homo sapiens, HCT-15, read-out: concentration that inhibits by 50% (IC50) the in vitro cell growth of the HCT-15 line.
The subject of the next series is J82. The series is described as follows: MTT test, cytotoxic activity on non-clonogenic cell lines. The class given is cell-based. Conditions: Homo sapiens, 10^−5 M, mean value. A digest of the protocol: (§1)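 Human bladder cancer lines were seeded at 20 000–50 000 cells/ml and, after 24 h, exposed to compounds at 10^−5 to 10^−10 M against a solvent control. Formazan was dissolved in DMSO and viability was read by spectrophotometric optical density.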
(In general: Tetrazolium assays rely on reduction of a dye to a coloured formazan, in cell work by metabolically active cells.)

The subject of another series is T24. Described as above. The class given is cell-based. Conditions: Homo sapiens, T-24, 10^−5 M, mean value. The gist of the method:
as §1

The test system of the next series is SW1088. Described as above. It is filed as cell-based. The note with it: Homo sapiens, 10^−5 M, mean value. A digest of the protocol:
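Human astrocytoma SW1088 cells seeded, grown 24 h at 37° C, 5% CO2, then exposed to compounds at 10^−5 to 10^−10 M versus solvent control. Viability by MTT reduction: 3 h MTT incubation, formazan dissolved in DMSO and read by spectrophotometry.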

Another series has as its system LoVo. The series is described as above. It is filed as cell-based. Conditions: Homo sapiens, 10^−5 M, mean value. A digest of the protocol: (§2)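 Compounds span 10^−5 to 10^−10 M, with solvent-treated wells as control, and the formazan is quantified by absorbance after DMSO solubilization.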
The test system of a further series is T-47D. The series is described as above. The class given is cell-based. The note with it: Homo sapiens, T47D, 10^−5 M, mean value. A digest of the protocol: as §2
In another series the test system is MCF7. Described as above. It is filed as cell-based. The note with it: Homo sapiens, 10^−5 M, mean value. A digest of the protocol:
as §2

For the next series, the system named is U-87MG. Described as above. It is filed as cell-based. The note with it: Homo sapiens, 10^−5 M, mean value. A digest of the protocol: as §2
Another series concerns U-373MG. The series is described as above. The class given is cell-based. Conditions: Homo sapiens, U373 MG, 10^−5 M, mean value. The gist of the method: as §2
Series [2] relates to HCT-15. The series is described as above. It is filed as cell-based. Conditions: Homo sapiens, mean value. The gist of the method: as §2
Another series deals with A-427. Described as above. It is filed as cell-based. The note with it: Homo sapiens, 10^−5 M, mean value. A digest of the protocol:
as §2

A further series has as its system PC-3. The description is as above. The class given is cell-based. Conditions: Homo sapiens, 10^−5 M, mean value. A digest of the protocol:
as §2

A further series concerns A549. Described as above. It is filed as cell-based. Conditions: Homo sapiens, 10^−5 M, mean value. A digest of the protocol: as §2
Setting [3] is: 72 hours incubation, MTT, read-out: mean optical density, expressed as percentage relative to the mean optical density under the control condition (100%).

Like-named read-outs stand apart in the source and are kept apart here.

For 21 compounds, IC50, melting point and viability results are on record in patent US6645983B1, “Pharmaceutical compositions comprising 4-quinolones for treating cancers” (Laboratoire L. Lafon, priority 1999, dated 2003).

Consider `COc1cc([C@@H]2c3cc4c(cc3[C@@H](O[C@@H]3O[C@@H]5CO[C@@H](C)O[C@H]5[C@H](O)[C@H]3O)[C@H]3COC(=O)[C@H]23)OCO4)cc(OC)c1O` [etoposide], for which, in the series on HCT-15 [1], the IC50 came to 1000 nM.
In general, melting point refers to the temperature, or range, at which the solid turns liquid. `COc1ccc(-c2c[nH]c3cccc(OC)c3c2=O)cc1` [CRL8491, 5-Methoxy-3-(4-methoxyphenyl)-1,4-dihydro-4-quinolinone] came in with a melting point of 215 to 216 °C.
Same read-out and setting: the value for `COc1ccc(-c2cnc3c(OC)ccc(OC)c3c2OCCO)cc1` [CRL8516, 2-{[5,8-Dimethoxy-3-(4-methoxyphenyl)-4-quinolyl]oxy}-1-ethanol] was 124 to 125 °C.
On the same count and under the same terms, the value for `COc1ccc(-c2cn(CCC#N)c3c(OC)ccc(OC)c3c2=O)cc1` [CRL8518, 3-[5,8-Dimethoxy-3-(4-methoxyphenyl)-4-oxo-1,4-dihydro-1-quinolinyl]propanenitrile] was 79 to 80 °C; that for `COc1ccc(-c2cn(CCOS(=O)(=O)c3ccc(C)cc3)c3c(OC)ccc(OC)c3c2=O)cc1` [CRL8517, 4-2-[5,8-Dimethoxy-3-(4-methoxyphenyl)-4-oxo-1,4-dihydro-1-quinolyl]ethyl p-Toluenesulfonate] was 85 to 86 °C.
Still for that read-out and setting: the value for `C=Cc1ccc(OC)c2c1c(=O)c(-c1ccc(OC)cc1)cn2C` [CRL8512, 8-Methoxy-3-(4-methoxyphenyl)-1-methyl-5-vinyl-1,4-dihydro-4-quinolinone] was 104 to 105 °C.
Compound `COc1ccc(-c2c[nH]c3ccc(OC)cc3c2=O)cc1` [CRL8490, 6-Methoxy-3-(4-methoxyphenyl)-1,4-dihydro-4-quinolinone] displayed a melting point of 335 to 336 °C.
As to `COc1ccc(-c2cnc3c(OC)ccc(OC)c3c2OCCCC#N)cc1` [CRL8501, {[5,8-Dimethoxy-3-(4-methoxyphenyl)-4-quinolyl]oxy}butanenitrile], the melting point lay in the range of 117 to 118 °C.
Take `CCN(CC)C(=O)CCn1cc(-c2ccc(OC)cc2)c(=O)c2ccc(OC)cc21` [CRL8525, N,N-Diethyl-3-[7-methoxy-3-(4-methoxyphenyl)-4-oxo-1,4-dihydro-1-quinolinyl]propanamide]: the melting point lay in the range of 158 to 159 °C.
`COc1ccc(-c2cn(C)c3c(OC)ccc(OS(=O)(=O)C(F)(F)F)c3c2=O)cc1` [CRL8511, 8-Methoxy-3-(4-methoxyphenyl)-1-methyl-5-trifluoro-methanesulfonate-1,4-dihydro-4-quinolinone] returned a melting point of 179 to 180 °C.
On the same count and under the same terms, the value for `COc1ccc(CNc2cc(OC)cc3c2c(=O)c(-c2ccc(OC)cc2)cn3C)cc1` [CRL8521, 5-(4-Methoxybenzylamino)-7-methoxy-3-(4-methoxyphenyl)-1-methyl-1,4-dihydro-4-quinolinone] was 144 to 145 °C.
On the same count and under the same terms, the value for `C=CCOc1c(-c2ccc(OC)cc2)cnc2cc(OC)cc(OC)c12` [CRL8496, 4-(Allyloxy)-5,7-dimethoxy-3-(4-methoxyphenyl)-quinoline] was 169 to 170 °C; that for `COc1ccc(-c2cn(CCO)c3c(OC)ccc(OC)c3c2=O)cc1` [CRL8515, 1-(2-Hydroxyethyl)-5,8-dimethoxy-3-(4-methoxyphenyl)-1,4-dihydro-4-quinolinone] was 126 to 127 °C.
Compound `COc1ccc(-c2cnc3cc(OC)cc(OC)c3c2OCCC2OCCO2)cc1` [CRL8500, 4-[2-(1,3-Dioxolan-2-yl)ethoxy]-5,7-dimethoxy-3-(4-methoxyphenyl)quinoline] returned a melting point of 141 to 142 °C.
`COc1ccc(-c2cn(CCCC#N)c3c(OC)ccc(OC)c3c2=O)cc1` [CRL8421, 4-[5,8-Dimethoxy-3-(4-methoxyphenyl)-4-oxo-1,4-dihydro-1-quinolinyl]butanenitrile] displayed a melting point of 126 to 127 °C. Moreover, the viability at 10 µM in the series with J82 (72 hours of incubation, control condition = 100%, read-out: mean optical density as percentage of control, J82) was found to be 47.1%. In addition, the viability at 10 µM in the series on T24 (72 hours of incubation, control condition = 100%, read-out: mean optical density as percentage of control, T24) turned out to be 40.3%. Moreover, in the series with SW1088 (72 hours of incubation, control condition = 100%, read-out: mean optical density as percentage of control, SW1088), the viability at 10 µM came to 51%. In the series with LoVo (72 hours of incubation, control condition = 100%, read-out: mean optical density as percentage of control, LoVo), the viability at 10 µM is 60.8%. Also, the viability at 10 µM in the series with T-47D (72 hours of incubation, control condition = 100%, read-out: mean optical density as percentage of control, T-47D) was found to be 83.5%. Moreover, the viability at 10 µM in the series with MCF7 (72 hours of incubation, control condition = 100%, read-out: mean optical density as percentage of control, MCF7) was determined as 49.5%. The viability at 10 µM in the series with U-87MG (U-87 MG, 72 hours of incubation, control condition = 100%, read-out: mean optical density as percentage of control, U-87MG) amounted to 29.9%. Also, the viability at 10 µM in the series with U-373MG (72 hours of incubation, control condition = 100%, read-out: mean optical density as percentage of control, U-373MG) stood at 81.7%. Further, the viability at 10 µM in the series on HCT-15 [2] (10^−5 M, 72 hours of incubation, control condition = 100%, read-out: mean optical density as percentage of control, HCT-16) worked out at 50%. The viability at 10 µM in the series with A-427 (72 hours of incubation, control condition = 100%, read-out: mean optical density as percentage of control, A-427) was 33%. In addition, in the series with PC-3 (72 hours of incubation, control condition = 100%, read-out: mean optical density as percentage of control, PC-3), the viability at 10 µM was found to be 61.4%. The viability at 10 µM with A549 (72 hours of incubation, control condition = 100%, read-out: mean optical density as percentage of control, A549) was 97.5%.
For `COc1ccc(-c2cn(C)c3cc(OC)cc(OS(=O)(=O)C(F)(F)F)c3c2=O)cc1` [CRL8493, 7-Methoxy-3-(4-methoxyphenyl)-1-methyl-5-trifluoromethanesulfonate-1,4-dihydro-4-quinolinone], the melting point fell in the range of 184 to 185 °C.
`C=CCNc1cc(OC)cc2c1c(=O)c(-c1ccc(OC)cc1)cn2C` [CRL8520, 5-Allylamino-7-methoxy-3-(4-methoxyphenyl)-1-methyl-1,4-dihydro-4-quinolinone] had a melting point of 154 to 155 °C.
`COc1ccc(-c2c[nH]c3cc(OC)cc(O)c3c2=O)cc1` [CRL8492, 5-Hydroxy-7-methoxy-3-(4-methoxyphenyl)-1,4-dihydro-4-quinolinone] displayed a melting point of 236 to 237 °C.
In turn, `COc1ccc2[nH]cc(-c3ccccc3)c(=O)c2c1` [CRL8488, 6-Methoxy-3-phenyl-1,4-dihydro-4-quinolinone] showed a melting point of 355 to 356 °C.
In turn, `COc1ccc(-c2cn(CCN(C)C)c3cc(OC)ccc3c2=O)cc1` [CRL8469, N-[3-(Dimethylamino)ethyl]-7-methoxy-3-(4-methoxyphenyl)-1,4-dihydro-4-quinolinone] came in with a melting point of 142 to 143 °C. Besides, the viability at 10 µM in the series on J82 (setting [3]) was 89.5%. For the same compound, the viability at 10 µM in the series on T24 (T24, 72 hours incubation, MTT, read-out: mean optical density, expressed as percentage relative to the mean optical density under the control condition (100%)) turned out to be 98.1%. For the same compound, in the series with SW1088 (setting [3]), the viability at 10 µM worked out at 105%. The viability at 10 µM with LoVo (setting [3]) is 95.9%. In the series with T-47D (T-47D, 72 hours incubation, MTT, read-out: mean optical density, expressed as percentage relative to the mean optical density under the control condition (100%)), the viability at 10 µM was determined as 103%. In addition, in the series on MCF7 (setting [3]), the viability at 10 µM came to 97.6%. Further, the viability at 10 µM with U-87MG (U-87MG, 72 hours incubation, MTT, read-out: mean optical density, expressed as percentage relative to the mean optical density under the control condition (100%)) stood at 108%. Besides, in the series on U-373MG (U-373MG, 72 hours incubation, MTT, read-out: mean optical density, expressed as percentage relative to the mean optical density under the control condition (100%)), the viability at 10 µM was 102%. The viability at 10 µM in the series on HCT-15 [2] (HCT-16, 10^−5 M, 72 hours incubation, MTT, read-out: mean optical density, expressed as percentage relative to the mean optical density under the control condition (100%)) was determined as 101%. Besides, the viability at 10 µM in the series with A-427 (setting [3]) came to 102%. In addition, the viability at 10 µM with PC-3 (setting [3]) worked out at 99.9%. Also, the viability at 10 µM in the series with A549 (setting [3]) was determined as 100%.
Consider `CCOC(=O)COc1c(-c2ccc(OC)cc2)cnc2cc(OC)cc(OC)c12` [CRL8502, Ethyl 2-{[5,7-dimethoxy-3-(4-methoxyphenyl)-4-quinolinyl]oxy}acetate], for which the melting point was in the range of 238 to 239 °C.
